Target: CDK4 (Homo sapiens, UniProt P11802+Q16531)
Assay: CDK4 percentage degradation in Calu-1 cells (Table 6)
Type: cell-based
Set-up: Cells that express cyclin D1-3 and CDK4/6 proteins were treated with heterobifunctional compounds; endogenous in cells; host or cells: Calu-1
Settings: 16 hours; for inhibition at 0.04 µM: 40 nM; for inhibition at 0.2 µM: 200 nM
Method in brief: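 Percentage degradation of Cyclin D1 and CDK4 derived from densitometry of ECL Western blots on lysates of Calu-1 cells. Treatment was 16 h with compound at either 40 nM or 200 nM.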

Chain of CDK4 (P11802 2-303 limits assumed): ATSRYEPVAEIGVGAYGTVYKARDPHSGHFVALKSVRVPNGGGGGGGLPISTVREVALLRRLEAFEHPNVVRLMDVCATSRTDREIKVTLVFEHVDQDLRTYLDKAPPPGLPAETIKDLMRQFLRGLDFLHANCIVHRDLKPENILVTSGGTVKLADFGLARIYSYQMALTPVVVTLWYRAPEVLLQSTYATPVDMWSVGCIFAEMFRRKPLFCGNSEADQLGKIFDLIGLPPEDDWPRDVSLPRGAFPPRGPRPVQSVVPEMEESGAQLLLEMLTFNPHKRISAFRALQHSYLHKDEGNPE
Chain of CDK4 (P24385 whole entry partner): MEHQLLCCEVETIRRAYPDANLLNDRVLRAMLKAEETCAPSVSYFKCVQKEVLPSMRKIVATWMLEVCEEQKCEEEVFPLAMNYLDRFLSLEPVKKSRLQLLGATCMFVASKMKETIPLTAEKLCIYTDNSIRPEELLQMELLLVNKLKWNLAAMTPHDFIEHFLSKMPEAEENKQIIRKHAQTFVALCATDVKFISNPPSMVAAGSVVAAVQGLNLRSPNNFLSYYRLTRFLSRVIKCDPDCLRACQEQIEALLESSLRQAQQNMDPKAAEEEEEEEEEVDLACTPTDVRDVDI
Chain of CDK4 (Q16531 2-1140 limits assumed): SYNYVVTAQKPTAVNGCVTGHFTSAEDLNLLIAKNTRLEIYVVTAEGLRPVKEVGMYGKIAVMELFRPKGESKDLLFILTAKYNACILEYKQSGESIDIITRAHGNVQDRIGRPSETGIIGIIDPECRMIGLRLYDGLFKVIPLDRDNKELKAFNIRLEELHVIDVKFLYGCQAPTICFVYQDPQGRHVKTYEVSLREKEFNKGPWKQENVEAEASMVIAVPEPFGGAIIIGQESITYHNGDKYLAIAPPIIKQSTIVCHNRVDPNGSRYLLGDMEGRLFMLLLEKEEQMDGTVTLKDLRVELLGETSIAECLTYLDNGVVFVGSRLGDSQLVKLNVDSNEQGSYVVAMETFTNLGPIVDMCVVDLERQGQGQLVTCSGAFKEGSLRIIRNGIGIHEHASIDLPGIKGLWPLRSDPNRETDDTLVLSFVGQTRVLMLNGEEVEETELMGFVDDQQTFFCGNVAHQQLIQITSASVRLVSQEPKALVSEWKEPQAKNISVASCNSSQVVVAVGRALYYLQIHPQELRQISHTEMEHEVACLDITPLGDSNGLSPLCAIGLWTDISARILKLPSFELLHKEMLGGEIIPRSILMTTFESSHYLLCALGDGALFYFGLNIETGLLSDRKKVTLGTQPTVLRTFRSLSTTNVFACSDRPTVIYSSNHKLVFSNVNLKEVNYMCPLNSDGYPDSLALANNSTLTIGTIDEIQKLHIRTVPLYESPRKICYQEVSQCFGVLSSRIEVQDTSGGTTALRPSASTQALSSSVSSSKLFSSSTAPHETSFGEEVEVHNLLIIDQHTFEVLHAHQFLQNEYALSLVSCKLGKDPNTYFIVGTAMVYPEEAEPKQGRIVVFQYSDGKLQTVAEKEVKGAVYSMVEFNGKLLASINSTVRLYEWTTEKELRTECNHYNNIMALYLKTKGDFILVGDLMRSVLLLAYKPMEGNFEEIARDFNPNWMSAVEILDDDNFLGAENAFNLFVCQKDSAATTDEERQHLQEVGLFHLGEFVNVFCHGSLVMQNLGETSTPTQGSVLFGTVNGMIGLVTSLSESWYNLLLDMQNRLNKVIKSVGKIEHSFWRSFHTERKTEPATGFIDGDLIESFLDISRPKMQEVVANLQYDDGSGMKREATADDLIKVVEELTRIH

Row | inhibition at 0.04 µM [%] | inhibition at 0.2 µM [%] | Structure (SMILES)
1 | < 30 | 50 to 80 | CNc1ccc(C(=O)Nc2ccc(N(C)C)c(C3CC3)n2)c(NC2CC3(CC(NC(=O)CN4CCN(c5ccc(Nc6ncc7c(C)c(C(C)=O)c(=O)n(C8CCCC8)c7n6)nc5)CC4)C3)C2)n1 (centres unmarked) [CPD-177, 2-((6-(2-(4-(6-((6-acetyl-8-cyclopentyl-5-methyl-7-oxo-7,8-dihydropyrido[2,3-d]pyrimidin-2-yl)amino)pyridin-3-yl)piperazin-1-yl)acetamido)spiro[3.3]heptan-2-yl)amino)-N-(6-cyclopropyl-5-(dimethylamino)pyridin-2-yl)-6-(methylamino)nicotinamide]
2 | 50 to 80 | 50 to 80 | CNc1ccc(C(=O)Nc2cn(C)c(C)n2)c(NC2CC3(CC(NC(=O)CN4CCN(c5ccc(Nc6ncc7c(C)c(C(C)=O)c(=O)n(C8CCCC8)c7n6)nc5)CC4)C3)C2)n1 (centres unmarked) [CPD-179, 2-((6-(2-(4-(6-((6-acetyl-8-cyclopentyl-5-methyl-7-oxo-7,8-dihydropyrido[2,3-d]pyrimidin-2-yl)amino)pyridin-3-yl)piperazin-1-yl)acetamido)spiro[3.3]heptan-2-yl)amino)-N-(1,2-dimethyl-1H-imidazol-4-yl)-6-(methylamino)nicotinamide]
3 | < 30 | 30 to 50 | CNc1ccc(C(=O)Nc2cccc(N)n2)c(NC2CC3(CC(NC(=O)CN4CCN(c5ccc(Nc6ncc7c(C)c(C(C)=O)c(=O)n(C8CCCC8)c7n6)nc5)CC4)C3)C2)n1 (centres unmarked) [CPD-180, 2-((6-(2-(4-(6-((6-acetyl-8-cyclopentyl-5-methyl-7-oxo-7,8-dihydropyrido[2,3-d]pyrimidin-2-yl)amino)pyridin-3-yl)piperazin-1-yl)acetamido)spiro[3.3]heptan-2-yl)amino)-N-(6-aminopyridin-2-yl)-6-(methylamino)nicotinamide]
4 | 30 to 50 | 50 to 80 | CNc1cccc(NC(=O)c2ccc(NC)nc2NC2CC3(CC(NC(=O)CN4CCN(c5ccc(Nc6ncc7c(C)c(C(C)=O)c(=O)n(C8CCCC8)c7n6)nc5)CC4)C3)C2)n1 (centres unmarked) [CPD-181, 2-((6-(2-(4-(6-((6-acetyl-8-cyclopentyl-5-methyl-7-oxo-7,8-dihydropyrido[2,3-d]pyrimidin-2-yl)amino)pyridin-3-yl)piperazin-1-yl)acetamido)spiro[3.3]heptan-2-yl)amino)-6-(methylamino)-N-(6-(methylamino)pyridin-2-yl)nicotinamide]
5 | 30 to 50 | 30 to 50 | CNc1ccc(C(=O)Nc2ccc(C)c(C)n2)c(NC2CC3(CC(NC(=O)CN4CCN(c5ccc(Nc6ncc7c(C)c(C(C)=O)c(=O)n(C8CCCC8)c7n6)nc5)CC4)C3)C2)n1 (centres unmarked) [CPD-182, 2-((6-(2-(4-(6-((6-acetyl-8-cyclopentyl-5-methyl-7-oxo-7,8-dihydropyrido[2,3-d]pyrimidin-2-yl)amino)pyridin-3-yl)piperazin-1-yl)acetamido)spiro[3.3]heptan-2-yl)amino)-N-(5,6-dimethylpyridin-2-yl)-6-(methylamino)nicotinamide]
6 | 50 to 80 | 50 to 80 | CNc1ccc(C(=O)Nc2ccn(C)c2)c(NC2CC3(CC(NC(=O)CN4CCN(c5ccc(Nc6ncc7c(C)c(C(C)=O)c(=O)n(C8CCCC8)c7n6)nc5)CC4)C3)C2)n1 (centres unmarked) [CPD-183, 2-((6-(2-(4-(6-((6-acetyl-8-cyclopentyl-5-methyl-7-oxo-7,8-dihydropyrido[2,3-d]pyrimidin-2-yl)amino)pyridin-3-yl)piperazin-1-yl)acetamido)spiro[3.3]heptan-2-yl)amino)-N-(1-methyl-1H-pyrrol-3-yl)-6-(methylamino)nicotinamide]
7 | 50 to 80 | 50 to 80 | CNc1ccc(C(=O)Nc2cccc(C(F)F)n2)c(NC2CC3(CC(NC(=O)CN4CCN(c5ccc(Nc6ncc7c(C)c(C(C)=O)c(=O)n(C8CCCC8)c7n6)nc5)CC4)C3)C2)n1 (centres unmarked) [CPD-184, 2-((6-(2-(4-(6-((6-acetyl-8-cyclopentyl-5-methyl-7-oxo-7,8-dihydropyrido[2,3-d]pyrimidin-2-yl)amino)pyridin-3-yl)piperazin-1-yl)acetamido)spiro[3.3]heptan-2-yl)amino)-N-(6-(difluoromethyl)pyridin-2-yl)-6-(methylamino)nicotinamide]
8 | < 30 | < 30 | CC(=O)c1c(C)c2cnc(Nc3ccc(N4CCN(CC(=O)NC5CC6(C5)CC(Nc5nc(C)ccc5C(=O)Nc5cc(C)on5)C6)CC4)cn3)nc2n(C2CCCC2)c1=O (centres unmarked) [CPD-192, ((6-(2-(4-(6-((6-acetyl-8-cyclopentyl-5-methyl-7-oxo-7,8-dihydropyrido[2,3-d]pyrimidin-2-yl)amino)pyridin-3-yl)piperazin-1-yl)acetamido)spiro[3.3]heptan-2-yl)amino)-6-methyl-N-(5-methylisoxazol-3-yl)nicotinamide]

The next lines start with the compound.

Row | Structure (SMILES) | inhibition at 0.04 µM [%] | inhibition at 0.2 µM [%]
9 | CNc1ccc(C(=O)Nc2ccc(N(C)C)nn2)c(NC2CC(CNC(=O)C3(CN4CCN(c5ccc(Nc6ncc7c(C)c(C(C)=O)c(=O)n(C8CCCC8)c7n6)nc5)CC4)CC3)C2)n1 (centres unmarked) [CPD-172, 2-((3-((1-((4-(6-((6-acetyl-8-cyclopentyl-5-methyl-7-oxo-7,8-dihydropyrido[2,3-d]pyrimidin-2-yl)amino)pyridin-3-yl)piperazin-1-yl)methyl)cyclopropane-1-carboxamido)methyl)cyclobutyl)amino)-N-(6-(dimethylamino)pyridazin-3-yl)-6-(methylamino)nicotinamide] | 50 to 80 | 50 to 80
10 | CNc1ccc(C(=O)Nc2cccc(C3CC3)n2)c(NC2CC3(C2)CN(C(=O)C(C)(C)N2CCN(c4ccc(Nc5ncc6c(C)c(C(C)=O)c(=O)n(C7CCCC7)c6n5)nc4)CC2)C3)n1 [CPD-175, 2-((2-(2-(4-(6-((6-acetyl-8-cyclopentyl-5-methyl-7-oxo-7,8-dihydropyrido[2,3-d]pyrimidin-2-yl)amino)pyridin-3-yl)piperazin-1-yl)-2-methylpropanoyl)-2-azaspiro[3.3]heptan-6-yl)amino)-N-(6-cyclopropylpyridin-2-yl)-6-(methylamino)nicotinamide] | < 30 | 50 to 80
11 | CNc1ccc(C(=O)Nc2cccc(C)n2)c(NC2CC3(C2)CN(C(=O)C(C)(C)N2CCN(c4ccc(Nc5ncc6c(C)c(C(C)=O)c(=O)n(C7CCCC7)c6n5)nc4)CC2)C3)n1 [CPD-176, 2-((2-(2-(4-(6-((6-acetyl-8-cyclopentyl-5-methyl-7-oxo-7,8-dihydropyrido[2,3-di]pyrimidin-2-yl)amino)pyridin-3-yl)piperazin-1-yl)-2-methylpropanoyl)-2-azaspiro[3.3]heptan-6-yl)amino)-6-(methylamino)-N-(6-methylpyridin-2-yl)nicotinamide] | < 30 | 50 to 80
12 | CNc1ccc(C(=O)Nc2ccc(N(C)C)nn2)c(NC2CC(CCC(=O)N3CCN(c4ccc(Nc5ncc6c(C)c(C(C)=O)c(=O)n(C7CCCC7)c6n5)nc4)CC3)C2)n1 (centres unmarked) [CPD-185, 2-((3-(3-(4-(6-((6-acetyl-8-cyclopentyl-5-methyl-7-oxo-7,8-dihydropyrido[2,3-d]pyrimidin-2-yl)amino)pyridin-3-yl)piperazin-1-yl)-3-oxopropyl)cyclobutyl)amino)-N-(6-(dimethylamino)pyridazin-3-yl)-6-(methylamino)nicotinamide] | < 30 | 30 to 50
13 | CNc1ccc(C(=O)Nc2ccc(N(C)C)nn2)c(NC2CN(C(=O)CN3CCN(c4ccc(Nc5ncc6c(C)c(C(C)=O)c(=O)n(C7CCCC7)c6n5)nc4)CC3)C2)n1 [CPD-187, 2-((1-(2-(4-(6-((6-acetyl-8-cyclopentyl-5-methyl-7-oxo-7,8-dihydropyrido[2,3-d]pyrimidin-2-yl)amino)pyridin-3-yl)piperazin-1-yl)acetyl)azetidin-3-yl)amino)-N-(6-(dimethylamino)pyridazin-3-yl)-6-(methylamino)nicotinamide] | < 30 | 50 to 80
14 | CNc1ccc(C(=O)Nc2ccc(N(C)C)nn2)c(NCC2CC(CNC(=O)CN3CCN(c4ccc(Nc5ncc6c(C)c(C(C)=O)c(=O)n(C7CCCC7)c6n5)nc4)CC3)C2)n1 (centres unmarked) [CPD-188, 2-(((3-((2-(4-(6-((6-acetyl-8-cyclopentyl-5-methyl-7-oxo-7,8-dihydropyrido[2,3-d]pyrimidin-2-yl)amino)pyridin-3-yl)piperazin-1-yl)acetamido)methyl)cyclobutyl)methyl)amino)-N-(6-(dimethylamino)pyridazin-3-yl)-6-(methylamino)nicotinamide] | 50 to 80 | 50 to 80
15 | CC(=O)c1c(C)c2cnc(Nc3ccc(N4CCN(CC(=O)NC5CC6(C5)CC(Nc5nc(C)ccc5C(=O)Nc5cccc(C)n5)C6)CC4)cn3)nc2n(C2CCCC2)c1=O (centres unmarked) [CPD-191, 2-((6-(2-(4-(6-((6-acetyl-8-cyclopentyl-5-methyl-7-oxo-7,8-dihydropyrido[2,3-d]pyrimidin-2-yl)amino)pyridin-3-yl)piperazin-1-yl)acetamido)spiro[3.3]heptan-2-yl)amino)-6-methyl-N-(6-methylpyridin-2-yl)nicotinamide] | < 30 | 30 to 50
16 | CNc1ccc(C(=O)Nc2ccc(N(C)C)nn2)c(NC[C@H]2CC[C@@H](NC(=O)CN3CCN(c4ccc(Nc5ncc6c(C)c(C(C)=O)c(=O)n(C7CCCC7)c6n5)nc4)CC3)CC2)n1 [CPD-193, 2-(((cis-4-(2-(4-(6-((6-acetyl-8-cyclopentyl-5-methyl-7-oxo-7,8-dihydropyrido[2,3-d]pyrimidin-2-yl)amino)pyridin-3-yl)piperazin-1-yl)acetamido)cyclohexyl)methyl)amino)-N-(6-(dimethylamino)pyridazin-3-yl)-6-(methylamino)nicotinamide] | 50 to 80 | 50 to 80
